Experimental data as given in patent US11266662B2, “Ganaxolone for use in prophylaxis and treatment of postpartum depression” (Marinus Pharmaceuticals, Inc., priority 2018, dated 2022).
Several values for one entry are separate records, joined by “and”; a condition that tells them apart may be missing. Equal entries are not always repeated.

Test: Phase 2A study (Magnolia) in women with postpartum depression: ganaxolone plasma concentrations / pharmacokinetics
Conditions: for Ratio GNX Concentration (ng/mL)/(μg/hr/kg): individual subjects of Cohorts 1-3 (order of Table 1A), listed as GNX
Protocol: Approximately 200 women with PPD 18 to 45 years of age are screened to randomize up to 100 subjects across up to 6 cohorts. Approximately 10-30 subjects are randomized into each cohort. Randomized subjects receive the investigational product (IP), ganaxolone or matching placebo in a 1:1 ratio. In Cohorts 1-5 the IP is administered intravenously over 60 hours. In Cohort 6 the dosing is initiated with a 6-hour intravenous (IV) infusion followed by oral dosing for 28 days plus 3-day taper.
Ganaxolone is infused at a rate of 4 mg/hr (16 ml/h of ganaxolone 0.25 mg/ml solution) for 48 hours and then, to minimize any risks for withdrawal or rebound of anxiety and depression symptoms, at a rate of 2 mg/hr for the next 12 hours. The infusion is stopped at 60 hours. Total of 9 subjects are dosed for this cohort.
Ganaxolone is infused at a rate of 8 mg/hr (16 ml/h of ganaxolone 0.5 mg/ml solution) for 48 hours and then at a rate of 4 mg/hr for the next 12 hours. This dose is approximately double the expected plasma exposure as compared to Cohort 1 at steady state (Cohort 2 expected plasma concentration ˜100-120 ng/mL). The infusion is stopped at 60 hours.
Twelve mg bolus of ganaxolone is initially given over 2 minutes followed by ganaxolone infusion at a rate of 12 mg/hr (24 ml/h of ganaxolone 0.5 mg/ml solution) for 48 hours. The rate is then reduced to 6 mg/hr for the next 12 hours, which is done to minimize any risks for withdrawal or rebound of anxiety and depression symptoms. The infusion is stopped at 60 hours.
In this cohort dosing is initiated with ganaxolone infusion at a rate of 20 mg/hr (40 ml/h of ganaxolone 0.5 mg/ml solution or matching placebo) for 6 hours followed by ganaxolone 900 mg (four 225 mg capsules per dose) or matching placebo capsules given orally at dinner time for 28 days followed by a 3-day taper (three, two, and one 225 mg capsule(s) per day, respectively).
This initial infusion is targeted to provide a fast onset of antidepressant activity by delivery of rapid plasma exposures to ganaxolone. Then, at dinner time of Day 1 the subjects take their first oral dose of ganaxolone 900 mg (four 225 mg capsules) or matching placebo (4 capsules). […] In previous studies, ganaxolone has been given up to a daily dose of 2000 mg, and at single doses of 1000 mg.
Six samples are collected for pharmacokinetic analysis in Cohorts 1-5 and 12 samples in Cohort 6. […] Seven samples are collected during the inpatient phase of Cohort 6 (including 6 samples on Day 1) followed by collection of 5 samples during the outpatient phase during the study visits for a total of 12 samples in Cohort 6.

[1] = female, human, plasma, intravenous, 220 μg/kg/hr, Mean average GNX Concentration, calculated for dose 220 μg/kg/hr
[2] = female, human, plasma, intravenous, 260 μg/kg/hr, Mean average GNX Concentration, calculated for dose 260 μg/kg/hr
[3] = female, human, plasma, iv, GNX Concentration, Cohort 1: IV 4 mg/hr for 48 h then 2 mg/hr for 12 h, individual subjects

CC(=O)[C@H]1CC[C@H]2[C@@H]3CC[C@H]4C[C@](C)(O)CC[C@]4(C)[C@H]3CC[C@]12C [ganaxolone, 3α-hydroxy-3β-methyl-5α-pregnan-20-one]
concentration at 48 h (female, human, plasma, intravenous, 210 μg/kg/hr, Mean average GNX Concentration, calculated for dose 210 μg/kg/hr): 246 ng/mL
concentration at 12 h [1]: 208 ng/mL
concentration at 24 h [1]: 233 ng/mL
concentration at 48 h [1]: 257 ng/mL
concentration at 12 h [2]: 246 ng/mL
concentration at 24 h [2]: 276 ng/mL
concentration at 48 h [2]: 304 ng/mL
AUC (female, human, plasma, iv, 86 ug/kg, AUC12-24, calculated from Table 1C, dose 86 μg/kg/hr (row order of Table 1C)): 1040 ng·h/mL
AUC (female, human, plasma, iv, 86 ug/kg, AUC12-48, calculated from Table 1C, dose 86 μg/kg/hr (row order of Table 1C)): 3340 ng·h/mL
AUC (female, human, plasma, iv, 86 ug/kg, AUC24-48, calculated from Table 1C, dose 86 μg/kg/hr (row order of Table 1C)): 2300 ng·h/mL
AUC (female, human, plasma, iv, 150 ug/kg, AUC12-24, calculated from Table 1C, dose 150 μg/kg/hr (row order of Table 1C)): 1810 ng·h/mL
AUC (female, human, plasma, iv, 150 ug/kg, AUC12-48, calculated from Table 1C, dose 150 μg/kg/hr (row order of Table 1C)): 5820 ng·h/mL
AUC (female, human, plasma, iv, 150 ug/kg, AUC24-48, calculated from Table 1C, dose 150 μg/kg/hr (row order of Table 1C)): 4010 ng·h/mL
AUC (female, human, plasma, iv, 160 ug/kg, AUC12-24, calculated from Table 1C, dose 160 μg/kg/hr (row order of Table 1C)): 1930 ng·h/mL
AUC (female, human, plasma, iv, 160 ug/kg, AUC12-48, calculated from Table 1C, dose 160 μg/kg/hr (row order of Table 1C)): 6210 ng·h/mL
AUC (female, human, plasma, iv, 160 ug/kg, AUC24-48, calculated from Table 1C, dose 160 μg/kg/hr (row order of Table 1C)): 4280 ng·h/mL
AUC (female, human, plasma, iv, 170 ug/kg, AUC12-24, calculated from Table 1C, dose 170 μg/kg/hr (row order of Table 1C)): 2050 ng·h/mL
AUC (female, human, plasma, iv, 170 ug/kg, AUC12-48, calculated from Table 1C, dose 170 μg/kg/hr (row order of Table 1C)): 6600 ng·h/mL
AUC (female, human, plasma, iv, 170 ug/kg, AUC24-48, calculated from Table 1C, dose 170 μg/kg/hr (row order of Table 1C)): 4550 ng·h/mL
AUC (female, human, plasma, iv, 180 ug/kg, AUC12-24, calculated from Table 1C, dose 180 μg/kg/hr (row order of Table 1C)): 2170 ng·h/mL
AUC (female, human, plasma, iv, 180 ug/kg, AUC12-48, calculated from Table 1C, dose 180 μg/kg/hr (row order of Table 1C)): 6980 ng·h/mL
AUC (female, human, plasma, iv, 180 ug/kg, AUC24-48, calculated from Table 1C, dose 180 μg/kg/hr (row order of Table 1C)): 4820 ng·h/mL
AUC (female, human, plasma, iv, 190 ug/kg, AUC12-24, calculated from Table 1C, dose 190 μg/kg/hr (row order of Table 1C)): 2290 ng·h/mL
AUC (female, human, plasma, iv, 190 ug/kg, AUC12-48, calculated from Table 1C, dose 190 μg/kg/hr (row order of Table 1C)): 7370 ng·h/mL
AUC (female, human, plasma, iv, 190 ug/kg, AUC24-48, calculated from Table 1C, dose 190 μg/kg/hr (row order of Table 1C)): 5080 ng·h/mL
AUC (female, human, plasma, iv, 200 ug/kg, AUC12-24, calculated from Table 1C, dose 200 μg/kg/hr (row order of Table 1C)): 2410 ng·h/mL
AUC (female, human, plasma, iv, 200 ug/kg, AUC12-48, calculated from Table 1C, dose 200 μg/kg/hr (row order of Table 1C)): 7760 ng·h/mL
AUC (female, human, plasma, iv, 200 ug/kg, AUC24-48, calculated from Table 1C, dose 200 μg/kg/hr (row order of Table 1C)): 5350 ng·h/mL
AUC (female, human, plasma, iv, 210 ug/kg, AUC12-24, calculated from Table 1C, dose 210 μg/kg/hr (row order of Table 1C)): 2530 ng·h/mL
AUC (female, human, plasma, iv, 210 ug/kg, AUC12-48, calculated from Table 1C, dose 210 μg/kg/hr (row order of Table 1C)): 8150 ng·h/mL
AUC (female, human, plasma, iv, 210 ug/kg, AUC24-48, calculated from Table 1C, dose 210 μg/kg/hr (row order of Table 1C)): 5620 ng·h/mL
AUC (female, human, plasma, iv, 220 ug/kg, AUC12-24, calculated from Table 1C, dose 220 μg/kg/hr (row order of Table 1C)): 2650 ng·h/mL
AUC (female, human, plasma, iv, 220 ug/kg, AUC12-48, calculated from Table 1C, dose 220 μg/kg/hr (row order of Table 1C)): 8540 ng·h/mL
AUC (female, human, plasma, iv, 220 ug/kg, AUC24-48, calculated from Table 1C, dose 220 μg/kg/hr (row order of Table 1C)): 5890 ng·h/mL
AUC (female, human, plasma, iv, 260 ug/kg, AUC12-24, calculated from Table 1C, dose 260 μg/kg/hr (row order of Table 1C)): 3130 ng·h/mL
AUC (female, human, plasma, iv, 260 ug/kg, AUC12-48, calculated from Table 1C, dose 260 μg/kg/hr (row order of Table 1C)): 10100 ng·h/mL
AUC (female, human, plasma, iv, 260 ug/kg, AUC24-48, calculated from Table 1C, dose 260 μg/kg/hr (row order of Table 1C)): 6960 ng·h/mL
concentration at 12 h [3]: 58.8 ng/mL
concentration at 24 h [3]: 72.6 ng/mL
concentration at 48 h [3]: 78.1 ng/mL
concentration at 72 h (female, human, plasma, iv, GNX Concentration, Cohort 1: IV 4 mg/hr for 48 h then 2 mg/hr for 12 h, individual subjects, time 72 hr): 10.1 ng/mL
Ratio GNX Concentration (ng/mL)/(μg/hr/kg) (time 12 hrs): 0.99 (ng/mL)/(μg/hr/kg) and 1.24 (ng/mL)/(μg/hr/kg) and 0.74 (ng/mL)/(μg/hr/kg) and 1.21 (ng/mL)/(μg/hr/kg) (3×) and 0.94 (ng/mL)/(μg/hr/kg) and 0.90 (ng/mL)/(μg/hr/kg) and 0.87 (ng/mL)/(μg/hr/kg) and 0.76 (ng/mL)/(μg/hr/kg) and 1.08 (ng/mL)/(μg/hr/kg) (2×) and 0.53 (ng/mL)/(μg/hr/kg) and 1.14 (ng/mL)/(μg/hr/kg) and 0.83 (ng/mL)/(μg/hr/kg) and 0.89 (ng/mL)/(μg/hr/kg) and 0.97 (ng/mL)/(μg/hr/kg) (3×) and 0.82 (ng/mL)/(μg/hr/kg) and 0.80 (ng/mL)/(μg/hr/kg) (2×) and 1.02 (ng/mL)/(μg/hr/kg) and 0.86 (ng/mL)/(μg/hr/kg) and 0.60 (ng/mL)/(μg/hr/kg) and 1.28 (ng/mL)/(μg/hr/kg)
Ratio GNX Concentration (ng/mL)/(μg/hr/kg) (time 24 hrs): 1.22 (ng/mL)/(μg/hr/kg) (3×) and 1.45 (ng/mL)/(μg/hr/kg) and 0.96 (ng/mL)/(μg/hr/kg) (2×) and 1.53 (ng/mL)/(μg/hr/kg) and 0.28 (ng/mL)/(μg/hr/kg) and 0.63 (ng/mL)/(μg/hr/kg) and 1.12 (ng/mL)/(μg/hr/kg) (3×) and 1.32 (ng/mL)/(μg/hr/kg) (2×) and 0.86 (ng/mL)/(μg/hr/kg) and 1.36 (ng/mL)/(μg/hr/kg) and 1.03 (ng/mL)/(μg/hr/kg) (2×) and 1.16 (ng/mL)/(μg/hr/kg) and 1.34 (ng/mL)/(μg/hr/kg) and 0.95 (ng/mL)/(μg/hr/kg) and 0.92 (ng/mL)/(μg/hr/kg) and 1.48 (ng/mL)/(μg/hr/kg) and 0.55 (ng/mL)/(μg/hr/kg) and 0.13 (ng/mL)/(μg/hr/kg)
Ratio GNX Concentration (ng/mL)/(μg/hr/kg) (time 48 hrs): 1.31 (ng/mL)/(μg/hr/kg) and 1.39 (ng/mL)/(μg/hr/kg) and 1.42 (ng/mL)/(μg/hr/kg) and 1.12 (ng/mL)/(μg/hr/kg) and 1.23 (ng/mL)/(μg/hr/kg) (2×) and 1.01 (ng/mL)/(μg/hr/kg) and 0.97 (ng/mL)/(μg/hr/kg) and 1.06 (ng/mL)/(μg/hr/kg) and 0.81 (ng/mL)/(μg/hr/kg) and 1.09 (ng/mL)/(μg/hr/kg) and 0.78 (ng/mL)/(μg/hr/kg) (2×) and 1.02 (ng/mL)/(μg/hr/kg) and 1.76 (ng/mL)/(μg/hr/kg) and 1.17 (ng/mL)/(μg/hr/kg) and 1.47 (ng/mL)/(μg/hr/kg) and 1.20 (ng/mL)/(μg/hr/kg) and 1.60 (ng/mL)/(μg/hr/kg) and 0.55 (ng/mL)/(μg/hr/kg) and 1.56 (ng/mL)/(μg/hr/kg) and 0.80 (ng/mL)/(μg/hr/kg) and 0.84 (ng/mL)/(μg/hr/kg)
Ratio GNX Concentration (ng/mL)/(μg/hr/kg) (time 72 hrs): 0.17 (ng/mL)/(μg/hr/kg) (2×) and 0.31 (ng/mL)/(μg/hr/kg) and 0.28 (ng/mL)/(μg/hr/kg) and 0.33 (ng/mL)/(μg/hr/kg) (2×) and 0.18 (ng/mL)/(μg/hr/kg) and 0.10 (ng/mL)/(μg/hr/kg) and 0.25 (ng/mL)/(μg/hr/kg) and 0.32 (ng/mL)/(μg/hr/kg) and 0.29 (ng/mL)/(μg/hr/kg) and 0.24 (ng/mL)/(μg/hr/kg) and 0.21 (ng/mL)/(μg/hr/kg) (2×) and 0.36 (ng/mL)/(μg/hr/kg) and 0.16 (ng/mL)/(μg/hr/kg) (2×) and 0.13 (ng/mL)/(μg/hr/kg) (2×) and 0.23 (ng/mL)/(μg/hr/kg) (2×) and 0.34 (ng/mL)/(μg/hr/kg) and 0.35 (ng/mL)/(μg/hr/kg) and 0.38 (ng/mL)/(μg/hr/kg) and 0.19 (ng/mL)/(μg/hr/kg) (2×)
